PMC6445170, “VEGFR-2 inhibitors and apoptosis inducers: synthesis and molecular design of new benzo[g]quinazolin bearing benzenesulfonamide moiety” (Journal of Enzyme Inhibition and Medicinal Chemistry, 2017)

What follows are molecules tested against T1, VEGFR-2 (Homo sapiens, UniProt P35968) (assay: AlphaScreen kinase assay, phosphotyrosine antibody). Conditions: 5 min preincubation, room temperature; VEGFR-2 activity determined in MCF-7 cells.
T1 construct: gene KDR; not described; endogenous activity said to be determined in MCF-7 cells, but compounds were incubated with 'enzyme' (AlphaScreen)
Assay type: cell-based
Text: AlphaScreen kinase assay, phosphotyrosine antibody on VEGFR-2

T1 sequence (P35968 20-1356): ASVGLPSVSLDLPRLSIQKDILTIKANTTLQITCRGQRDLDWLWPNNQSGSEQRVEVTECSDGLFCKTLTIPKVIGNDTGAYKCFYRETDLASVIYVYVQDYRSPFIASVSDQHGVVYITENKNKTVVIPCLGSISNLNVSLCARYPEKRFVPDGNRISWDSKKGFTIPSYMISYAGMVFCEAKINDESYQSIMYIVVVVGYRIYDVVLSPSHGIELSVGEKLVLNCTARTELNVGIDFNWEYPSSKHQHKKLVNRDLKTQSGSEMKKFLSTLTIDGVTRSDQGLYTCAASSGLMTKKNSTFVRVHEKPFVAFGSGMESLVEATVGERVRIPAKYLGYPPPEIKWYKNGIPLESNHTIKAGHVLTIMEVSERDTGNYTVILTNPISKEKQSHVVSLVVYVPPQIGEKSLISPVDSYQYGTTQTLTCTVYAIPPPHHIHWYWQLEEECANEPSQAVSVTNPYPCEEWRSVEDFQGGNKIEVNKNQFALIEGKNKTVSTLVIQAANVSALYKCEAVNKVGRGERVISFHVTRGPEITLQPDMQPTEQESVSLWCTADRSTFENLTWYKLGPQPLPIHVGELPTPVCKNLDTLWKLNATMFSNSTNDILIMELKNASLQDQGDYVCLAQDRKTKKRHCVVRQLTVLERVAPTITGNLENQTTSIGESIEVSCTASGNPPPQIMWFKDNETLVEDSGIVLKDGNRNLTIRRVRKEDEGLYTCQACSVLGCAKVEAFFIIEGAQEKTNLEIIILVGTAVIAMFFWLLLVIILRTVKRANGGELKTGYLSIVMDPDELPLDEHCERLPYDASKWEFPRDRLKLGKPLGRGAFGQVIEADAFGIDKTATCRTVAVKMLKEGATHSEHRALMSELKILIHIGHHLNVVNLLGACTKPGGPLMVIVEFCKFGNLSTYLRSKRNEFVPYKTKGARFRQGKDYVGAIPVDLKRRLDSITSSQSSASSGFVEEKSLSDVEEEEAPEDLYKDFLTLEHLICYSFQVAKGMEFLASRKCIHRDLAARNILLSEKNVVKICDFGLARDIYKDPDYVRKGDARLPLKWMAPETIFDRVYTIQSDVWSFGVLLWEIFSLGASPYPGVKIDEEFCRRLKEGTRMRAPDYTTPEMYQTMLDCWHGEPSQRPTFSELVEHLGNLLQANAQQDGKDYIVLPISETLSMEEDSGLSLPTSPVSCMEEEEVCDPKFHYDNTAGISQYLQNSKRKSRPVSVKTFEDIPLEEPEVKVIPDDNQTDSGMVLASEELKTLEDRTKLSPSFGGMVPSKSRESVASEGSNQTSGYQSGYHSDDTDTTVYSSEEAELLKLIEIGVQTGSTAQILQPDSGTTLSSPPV

| SMILES | % Inhibition of VEGFR-2 enzyme [%] |
| --- | --- |
| NNC(=O)CSc1nc2cc3ccccc3cc2c(=O)n1-c1ccc(S(N)(=O)=O)cc1 [compound 5, 4-(2-(2-Hydrazinyl-2-oxoethylthio)-4-oxobenzo[g]quinazolin-3(4H)-yl)benzenesulfonamide] | 68.44 |
| Cc1ccc(C)c(C=NNC(=O)CSc2nc3cc4ccccc4cc3c(=O)n2-c2ccc(S(N)(=O)=O)cc2)c1 [compound 6, 4-(2-(2-(2-(2,5-Dimethylbenzylidene)hydrazinyl)-2-oxoethylthio)-4-oxobenzo[g]quinazolin-3(4H)-yl)benzenesulfonamide] | 69.95 |

The next lines start with the values.

| % Inhibition of VEGFR-2 enzyme [%] | SMILES |
| --- | --- |
| 64.89 | NS(=O)(=O)c1ccc(-n2c(SCC(=O)NN=Cc3ccc(Br)cc3)nc3cc4ccccc4cc3c2=O)cc1 [compound 10, 4-(2-(2-(2-(4-Bromobenzylidene)hydrazinyl)-2-oxoethylthio)-4-oxobenzo[g]quinazolin-3(4H)-yl)benzenesulfonamide] |
| 71.29 | NS(=O)(=O)c1ccc(-n2c(SCC(=O)NN=Cc3ccc4c(c3)OCO4)nc3cc4ccccc4cc3c2=O)cc1 [compound 11, 4-(2-(2-(2-(Benzo[d][1,3]dioxol-5-ylmethylene)hydrazinyl)-2-oxoethylthio)-4-oxobenzo[g]quinazolin-3(4H)-yl)benzenesulfonamide] |

Same assay, conditions: 5 min preincubation, room temperature; VEGFR-2 activity determined in MCF-7 cells; inhibitor concentration not stated

| % Inhibition of VEGFR-2 enzyme [%] | SMILES |
| --- | --- |
| 72.19 | Cc1ccc(C=NNC(=O)CSc2nc3cc4ccccc4cc3c(=O)n2-c2ccc(S(N)(=O)=O)cc2)cc1F [compound 7, 4-(2-(2-(2-(3-Fluoro-4-methylbenzylidene)hydrazinyl)-2-oxoethylthio)-4-oxobenzo[g]quinazolin-3(4H)-yl)benzenesulfonamide] |

Same assay, conditions: 5 min preincubation, room temperature; VEGFR-2 activity determined in MCF-7 cells; read-out: IC50 on VEGFR-2 enzyme (μm)

| IC50 [nM] | SMILES |
| --- | --- |
| 640 | NS(=O)(=O)c1ccc(-n2c(SCC(=O)NN=Cc3ccc(Cl)cc3Cl)nc3cc4ccccc4cc3c2=O)cc1 [compound 9, 4-(2-(2-(2-(2,4-Dichlorobenzylidene)hydrazinyl)-2-oxoethylthio)-4-oxobenzo[g]-quinazolin-3(4H)-yl)benzenesulfonamide] |
| 860 | NS(=O)(=O)c1ccc(-n2c(SCC(=O)N3NC(=O)CC3=O)nc3cc4ccccc4cc3c2=O)cc1 [compound 20, 4-(2-(2-(3,5-Dioxopyrazolidin-1-yl)-2-oxoethylthio)-4-oxobenzo[g]quinazolin-3(4H)-yl) benzenesulfonamide] |
| 830 | CCOC(=O)c1cnn(C(=O)CSc2nc3cc4ccccc4cc3c(=O)n2-c2ccc(S(N)(=O)=O)cc2)c1N [compound 22, Ethyl 5-amino-1-(2-(4-oxo-3-(4-sulfamoylphenyl)-3,4-dihydrobenzo[g]quinazolin-2-ylthio)acetyl)-1H-pyrazole-4-carboxylate] |
| 1040 | Cc1nn(C(=O)CSc2nc3cc4ccccc4cc3c(=O)n2-c2ccc(S(N)(=O)=O)cc2)c(N)c1C#N [compound 23, 4-(2-(2-(5-Amino-4-cyano-3-methyl-1H-pyrazol-1-yl)-2-oxoethylthio)-4-oxobenzo[g]quinazo-lin-3(4H)-yl) benzenesulfonamide] |
